The conditions of data set [1]: upon contact with either plasma or aqueous solutions; cited from earlier work.
The conditions of data set [2]: in contrast to bortezomib; cited from earlier work.
The subject of data set [3] is patients with advanced solid tumors, lymphoma, RRMM, and relapsed or refractory AL amyloidosis. To be noted: cited from earlier work.
Another data set addresses receptors. As to conditions: read-out: IC50 values against receptors; cited from earlier work.
For data set [4], the system named is multiple myeloma patients who completed induction therapy. As to the kind of experiment: Clinical study of oral single-agent ixazomib maintenance therapy. The format is in vivo, human. An excerpt: These patients completed induction therapy and progressed to the maintenance phase.
The subject of another data set is tumor xenografts. To be noted: in contrast to bortezomib; cited from earlier work.
For data set [5], the target named is β1 site of the 20S proteasome (Homo sapiens, UniProt P28072). To be noted: at higher concentrations; cited from earlier work.
The target in data set [6] is β2 site of the 20S proteasome (Homo sapiens, UniProt Q99436). To be noted: at higher concentrations; cited from earlier work.
In a further data set the test system is kinases. To be noted: read-out: IC50 values against kinases; cited from earlier work.
The subject of data set [7] is patients with relapsed, refractory multiple myeloma. As to the kind of experiment: Exposure-response logistic regression analyses, phase 1 study of weekly single-agent ixazomib. The format is in vivo, human. To be noted: starting dose 3.0 mg weekly. An excerpt:
The methods and results of these analyses are described below.
The metric of exposure (Ex) was AUC per day (derived from individual clearance values using population pharmacokinetics) for both exposure logistic regression analyses Ex/S and Ex/E. Ex/S analysis was done on seven adverse events (AEs): non-hematologic (non-H) (fatigue, rash, peripheral neuropathy, diarrhea) and hematologic (H) (anemia, thrombocytopenia, neutropenia). The non-hematologic adverse events data were categorized into grade≥2 vs. grade≤1 groups while hematologic adverse events data were grouped into grade≥3 vs. grade≤2. The data were categorized in this way as maintenance treatment should have a tolerable adverse events profile and contribute to acceptable quality of life. Different cut-offs were used for hematologic and non-hematologic adverse events because grade 3 hematologic adverse events may have less impact on quality of life and be more manageable than grade 2 non-hematologic adverse events such as diarrhea. For exposure efficacy (Ex/E), data were categorized as: ≥stable disease (SD) vs. progressive disease (PD). Clinical benefit rate including SD achieved in relapsed or refractory patients may be a meaningful predictor of expected response in a maintenance setting. The logistic regression analyses were done using SPLUS software version 8.1.

The target of the next data set is β5 proteasome (Homo sapiens, UniProt P28074). As to conditions: in contrast to bortezomib; cited from earlier work.
[8] abbreviates: of 10 patients who improved during maintenance.

Where a name gives a salt, the structure may show the parent alone. A value given as a limit tells only on which side of the number the result lay.

The term IC50 denotes the concentration at which inhibition is half-maximal.

On to `CC(C)C[C@H](NC(=O)CNC(=O)c1cc(Cl)ccc1Cl)B1OC(=O)C(CC(=O)O)(CC(=O)O)O1` [ixazomib citrate], for which the hydrolysis to ixazomib result in data set [1] is reported as “rapidly hydrolyzes”.
As to `CC(C)C[C@H](NC(=O)CNC(=O)c1cc(Cl)ccc1Cl)B(O)O` [ixazomib], in data set [2], the tissue penetration result is “more prolonged tissue penetration”. Further, the clinical activity entry in data set [3] (advanced solid tumors, lymphoma, RRMM, AL amyloidosis) was “early signs of activity”. Also, in data set [3] (clinical studies), the “emerging safety profile / tolerability” value is reported as “generally well tolerated” and the toxicity profile result is “favorable toxicity profile with low rates of peripheral neuropathy”. For the same compound, the half-inhibitory concentration (IC50) at receptors is more than 10 µM. In data set [4] (after follow-up of 25.1-33.9 months), the “survival of patients who received maintenance” value was “alive”. Moreover, in data set [4] (n=21, maintenance therapy), the “best overall response: complete response (CR) or better, percent of patients” value is 52% and the “best overall response: very good partial response (VGPR) or better, percent of patients” value was 71%. For the same compound, the “median duration of response” value in data set [4] (n=21, range 6.7-31.18) was 21.65 months. Further, in [4] (setting [8]), the “improved response CR to sCR, patients” value is given as 2/10; the “improved response VGPR to CR, patients” value is on record as 5/10; the “improved response VGPR to near-CR (nCR), patients” value is given as 2/10; the “improved response VGPR to stringent complete response (sCR), patients” value was 1/10. For the same compound, the “median time to first response (≥rapid response “PR”)” value in data set [4] (range 0.92-5.78) is recorded as 0.99 months. The “median time to best response” value in [4] (range 1.02-24.74) is 7.46 months. In the data set on tumor xenografts, the “antitumor activity in tumor xenografts” value was “antitumor activity in a broader range of tumor xenografts”. Besides, the “inhibition of activity of the β1 site” value in data set [5] is reported as “also inhibits the activity”. Besides, in [6], the “inhibition of activity of the β2 site” value was “also inhibits the activity”. In the data set with kinases, the IC50 is more than 10 µM. In addition, in data set [7], the “model-predicted clinical benefit rate (≥SD)” value is recorded as approximately 33%, the “model-predicted incidence of grade≥2 diarrhea” value is on record as 19%, the “model-predicted incidence of grade≥2 fatigue” value is recorded as 19% and the “model-predicted incidence of grade≥2 rash” value is recorded as 16%. For the same compound, in data set [7], the “model-predicted incidence of grade≥3 neutropenia” value is given as 10% and the “model-predicted incidence of grade≥3 thrombocytopenia” value is recorded as 22%. Moreover, the “dissociation rate from the proteasome” value at β5 proteasome was “faster dissociation rate”.

(Values after patent publication US11241448B2, “Methods for cancer therapy” (Millennium Pharmaceuticals, Inc., priority 2014, dated 2022).)
